Test results published in PMC4249762 (Nature cell biology, 2014).

How the values were obtained:
Format in all cases: biochemical
mouse cathepsin S = mouse cathepsin S (Mus musculus, UniProt O70370); assay: fluorimetric hydrolysis of Z-Leu-Arg-AMC by purified enzyme, pH […]
cathepsin S = cathepsin S (Homo sapiens, UniProt P25774); assay: as above
cathepsin B = cathepsin B (Homo sapiens, UniProt P07858); assay: enzyme selectivity assay with peptide substrate

Sequence of cathepsin S (P25774 115-331): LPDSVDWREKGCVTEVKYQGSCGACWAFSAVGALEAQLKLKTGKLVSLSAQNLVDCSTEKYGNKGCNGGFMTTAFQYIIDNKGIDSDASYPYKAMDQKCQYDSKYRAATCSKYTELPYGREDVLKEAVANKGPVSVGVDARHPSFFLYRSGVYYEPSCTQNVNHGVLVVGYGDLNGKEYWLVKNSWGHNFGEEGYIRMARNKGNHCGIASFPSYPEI

Ki (mouse cathepsin S): 0.69 nM | Ki (cathepsin S): 0.29 nM | Ki (cathepsin B): 700 nM
Substance: VBY-999
